Experimental data taken from Sander's compilation of Henry's law constants (doi:10.1016/j.chroma.2004.12.027).

assay: Henry solubility constant Hcp at 298.15 K (mol/(m3 Pa)); settings: reference: Diaz et al. (2005)

Structure (SMILES) | Henry solubility constant Hcp
COc1c(Cl)cc(Cl)cc1Cl [1,3,5-trichloro-2-methoxybenzene] | 0.0044
COc1c(Cl)ccc(Cl)c1Br [6-bromo-2,5-dichloro-1-methoxybenzene] | 0.0077
COc1c(Br)ccc(Cl)c1Br [2,6-dibromo-3-chloro-1-methoxybenzene] | 0.0074
COc1c(Cl)ccc(Cl)c1Cl [1,2,4-trichloro-3-methoxybenzene] | 0.011
COc1c(Br)cc(Cl)cc1Br [2,6-dibromo-4-chloro-1-methoxybenzene] | 0.02
COc1c(Cl)cc(Br)cc1Cl [4-bromo-2,6-dichloro-1-methoxybenzene] | 0.012
COc1c(Br)ccc(Br)c1Br [1,3,4-tribromo-2-methoxybenzene] | 0.0052
COc1c(Cl)cc(Cl)cc1Br [2-bromo-4,6-dichloro-1-methoxybenzene] | 0.0082
COc1c(Cl)ccc(Br)c1Cl [3-bromo-2,6-dichloro-1-methoxybenzene] | 0.011
COc1c(Br)cc(Br)cc1Br [1,3,5-tribromo-2-methoxybenzene] | 0.019
